Measurements as given in patent US7807176B2, “Polypeptide promoting vascular endothelial cell growth” (Genomidea, Inc., priority 2004, dated 2010).
Entries after “also recorded” stand apart in the source; their conditions may differ.

Assays:
[1] = system: endothelial nitric oxide synthase (eNOS) mRNA; assay: Growth factor mRNA expression level: eNOS; assay type: cell-based
Human endothelial cells = assay: Test Example 2: growth of endothelial cells; assay type: cell-based; conditions: 1, 10 and 100 ng/ml; Test Example 2, present tense
Method: Human endothelial cells are sensitized with the HVJ envelope vector and then cultured in the presence or absence of human F2 peptide added externally (1, 10 and 100 ng/ml), to determine the increase (%) of the number of cells. […] Separately, endothelial cells sensitized with the HVJ envelope vector (concentration: 10 μg/ml) are cultured and an increase in the number of cells is measured to determine percentage increase (%). […] Further, the endothelial cells sensitized with the HVJ envelope vector are cultured in the presence or absence of rabbit anti-human F peptide antibody, and then an increase in the number of cells is measured to determine percentage increase (%).

microorganism = assay: Antimicrobial activity, minimum inhibitory concentration on microtiter plate; assay type: cell-based; conditions: Example 7, method only, MIC not given
Method: The antimicrobial activity is evaluated according to US National Committee for Clinical Laboratory Standard (NCCL Documents M7-A3). That is, the minimum concentration of the peptide at which microbial growth is inhibited is determined on a microtiter plate. A microorganism is cultured for 16 hours and then the absorbance at A600 thereof measured. From correlation of predetermined turbidity with colony forming unit (CFU), the […] is diluted with a medium to attain a specified CFU. Each microorganism strain is added at about 5×10^5 CFU/ml (final concentration). 5 mM aqueous solution of each peptide and 1.6 mM solution using a medium are prepared and used in serial dilution. 50 μl peptide at each concentration is pipetted into each well of a microtiter plate into which 50 μl/well microbial suspension has been pipetted (the final concentration of the peptide is 3.1 μM to 800 μM). A well to which the peptide was not added is used as the negative control. […] The concentration shown as results is MIC (μM). According to this method, the antimicrobial activity of the F2 peptide is determined.

[2] = system: fibroblast growth factor (FGF-2) mRNA; assay: Growth factor mRNA expression level: FGF-2; assay type: cell-based
[3] = system: phosphatidyl inositol-3-kinase/Akt (PI3K/Akt); assay: Effect on PI3K/Akt activity; conditions: data are not shown
[4] = system: insulin-like growth factor-1 (IGF-1) mRNA; assay: Growth factor mRNA expression level: IGF-1; assay type: cell-based
[5] = system: ERK (extracellular signal-related kinase); assay: Effect on ERK activity; conditions: data are not shown
C57BL/6 female mouse = assay: Matrigel plug assay, in vivo angiogenesis; conditions: 1 μg/ml in Matrigel, subcutaneous, after 7 days
Method: In order to examine the in vivo angiogenesis-promoting activity of F2 peptide, a Matrigel plug assay (Rikitake, Y et al., Arterioscler Thromb Vasc Biol 20, 1006-1012 (2000)) was carried out. Together with any one of VEGF-A (50 ng/ml), F2 peptide (1 μg/ml) or the control peptide (1 μg/ml) or without adding any sample (negative control), Matrigel (0.5 ml, BD Biosciences, Franklin Lakes, N.J.) depleted of growth factor was mixed with 40 U/ml heparin (Aventis Pharma, Tokyo, JP). Then, each mixture was injected subcutaneously into a C57BL/6 female mouse obtained from Oriental Bioscience (Kyoto, JP). After 7 days, the mouse was sacrificed, and the plug was recovered and fixed in methanol. For immune staining, the section was incubated overnight at 4° C. with anti-CD31 (PECAM-1) monoclonal antibody (diluted at 1:100, BD Pharmigen, San Diego, Calif.) and then incubated for 2 hours with Alexa Flour 488 secondary antibody (1:1000, Molecular Probes, Eugene, Oreg.) before photographing. Every experimental protocol was approved by Animal Committee, Medical Department, Graduate School, Osaka University, JP.

tube formation = assay: Tube formation, Kurabo Angiogenesis kit with CD31 staining and image quantification; assay type: cell-based, human; conditions: for tube Area % Increase / tube Length % Increase: Table 2; for Area (% increase): Example 5, Table 4; for Length (% increase): Example 5, Table 5
Method: Using a Kurabo Angiogenesis kit (KZ-1000, Kurabo Industries Ltd.), tube formation was examined. A blank, vascular endothelial growth factor-A protein (VEGF-A), pVEGF plasmid (plasmid containing a gene encoding vascular endothelial growth factor), and pSPORT1 (a plasmid not containing a gene encoding vascular endothelial growth factor) were used as controls. […]
Culture was carried out at 37° C. in a 5% CO2 incubator. The medium was exchanged on the 4th, 7th and 9th days of culture with a fresh medium containing the same additives.
CD31 (PECAM-1) staining primary antibody (mouse anti-human CD31 antibody) was diluted 4,000-fold with a blocking solution (Dulbecco's phosphate buffer solution (PBS(−)) containing 1% BSA). 0.5 ml of this primary antibody solution was added to each well and incubated for 60 minutes at 37° C. After incubation was finished, each well was washed 3 times with 1 ml blocking solution.
Then, 0.5 ml of a secondary antibody (goat anti-mouse IgG/alkali phosphatase conjugate) solution, diluted 500-fold with the blocking solution, was added to each well and incubated for 60 minutes at 37° C., and each well was washed 3 times with 1 ml distilled water. Separately, 2 tablets of BCIP/NBT were dissolved in 20 ml distilled water and filtered through a filter with a pore size of 0.2 μm, to prepare a substrate solution. 0.5 ml of the prepared BCIP/NBT substrate solution was added to each well and incubated at 37° C. until the tube turned deep violet (usually in 5 to 10 minutes). After incubation was finished, each well was washed 3 times with 1 ml distilled water, followed by removing the washing solution using suction, and the plate was left to air-dry. After drying, each well was observed under a microscope.
Each well was observed under a 40× magnification microscope and a photograph of each well was taken. An enlarged photograph with the scale of 1 mm magnified 40-fold was taken (FIG. 5).
Each of the resulting images was quantified with angiogenesis quantification software (KSW-5000U, Kurabo Industries Ltd.) according to the following method. The area (left in FIG. 6) and length (right in FIG. 6) of tubes formed in each visual field were measured on the scale by computer analysis with various indicators. […]

With “MLSLIFLHRLKSMRKRLDRKLRFWHRKNYP (listed as Homo sapiens) [F2 peptide]” the “effect on mRNA level of eNOS (in words)” value [1] was “did not have any effect”, the “eNOS mRNA Increased Amount [times]” value ([1]; 24 hrs) was 0.1 times and the “eNOS mRNA Increased Amount [times]” value ([1]; 48 hrs) was 6.1 times. For the same sequence, the “eNOS mRNA Increased Amount [times]” value ([1]; 72 hrs) was 0.7 times, the “growth of endothelial cells with externally added peptide” value (Human endothelial cells) was “growth of endothelial cells is promoted” and the antimicrobial activity (microorganism) was “has an antimicrobial activity”. The “effect on mRNA level of FGF-2 (in words)” value [2] was “did not have any effect”, the “FGF-2 mRNA Increased Amount [times]” value ([2]; 24 hrs) was 5.7 times and the “FGF-2 mRNA Increased Amount [times]” value ([2]; 48 hrs) was 6.0 times. For the same sequence, the “FGF-2 mRNA Increased Amount [times]” value ([2]; 72 hrs) was 9.4 times, the “effect on PI3K/Akt activity” value [3] was “did not have any direct effect” and the “IGF-1 mRNA Increased Amount [times]” value ([4]; 24 hrs) was 46.2 times. The “IGF-1 mRNA Increased Amount [times]” value ([4]; 48 hrs) was 97.9 times, the “IGF-1 mRNA Increased Amount [times]” value ([4]; 72 hrs) was 243.8 times and the “effect on mRNA level of IGF-1 (in words)” value ([4]; over 72 hours, FIG. 16) was “up-regulated the mRNA level of insulin-like growth factor-1 (IGF-1) potently and specifically in a time-dependent manner”. For the same sequence, the “effect on ERK activity” value [5] was “did not have any direct effect”, the “newly formed blood vessels containing intact erythrocytes in the plug” value (C57BL/6 female mouse; FIG. 12) was “more newly formed blood vessels containing intact erythrocytes than in the mouse receiving a Matrigel containing the control peptide” and the “newly formed blood vessels by immune staining with anti-CD31 antibody” value (C57BL/6 female mouse; FIG. 13) was “more newly formed blood vessels”. For the same sequence, the “tube Area % Increase” value (tube formation; 100 ng/ml) was 61%, the “tube Length % Increase” value (tube formation; 100 ng/ml) was 53% and the “Area (% increase)” value (tube formation; 1 μg/ml) was 41.8%. The “Length (% increase)” value (tube formation; 1 μg/ml) was 38.5%, the “tube Area % Increase” value (tube formation; 1 μg/ml) was 55% and the “tube Length % Increase” value (tube formation; 1 μg/ml) was 50%. For the same sequence, the “Area (% increase)” value (tube formation; 10 μg/ml) was 131.4%, the “Length (% increase)” value (tube formation; 10 μg/ml) was 115.5% and the “angiogenesis activity compared with LL-37 peptide (in words)” value (tube formation; 10 μg/ml, FIG. 15) was “higher angiogenesis activity at a dose of 10 μg/ml than that of LL-37 peptide”. The “tube Area % Increase” value (tube formation; 10 μg/ml) was 132%, the “tube Length % Increase” value (tube formation; 10 μg/ml) was 116% and the “in vitro angiogenesis activity (in words)” value (tube formation; F2 0.1, 1, 10 μg/ml versus VEGF 50 ng/ml and control peptide) was “larger blood vessels were formed; also recorded: stronger angiogenesis enhancing activity than that of VEGF”.
